Measured values reported in patent US10689344B2, “Biphenylamide derivative Hsp90 inhibitors” (University of Kansas, priority 2013, dated 2020).

Assays:
[1] = tested on: SKBr3 (estrogen receptor negative, HER2 over-expressing breast cancer cells); assay: Anti-proliferation assay (MTS/PMS, 72 h), SKBr3; assay type: cell-based; conditions: Homo sapiens, SK-BR-3, Table 3, substituted para-para biphenyl core
Experimental: (§1) Cells were maintained in a 1:1 mixture of Advanced DMEM/F12 (Gibco) supplemented with non-essential amino acids, L-glutamine (2 mM), streptomycin (500 μg/mL), penicillin (100 units/mL), and 10% FBS. Cells were grown to confluence in a humidified atmosphere (37° C., 5% CO2), seeded (2000/well, 100 μL) in 96-well plates, and allowed to attach overnight. Compound at varying concentrations in DMSO (1% DMSO final concentration) was added, and cells were returned to the incubator for 72 h. At 72 h, the number of viable cells was determined using an MTS/PMS cell proliferation kit (Promega) per the manufacturer's instructions. Cells incubated in 1% DMSO were used at 100% proliferation, and values were adjusted accordingly. IC50 values were calculated from separate experiments performed in triplicate using GraphPad Prism.
(§2) Anti-proliferative studies with the compounds described herein were performed against the SKBr3 (estrogen receptor negative, HER2 over-expressing breast cancer cells) and MCF-7 (estrogen receptor positive breast cancer cells) breast cancer cell lines. […] In some embodiments, in contrast to the novobiocin derivatives, which usually manifest better anti-proliferative activities against the SKBr3 cell line, the biphenyl derivatives described herein were more efficacious against the MCF-7 cell line. In general, all substitutions on the phenyl ring were determined to be beneficial, consistent with the existence of a hydrophobic pocket in this region of the Hsp90 C-terminal binding site.

[2] = tested on: MCF-7 (estrogen receptor positive breast cancer cells); assay: Anti-proliferation assay (MTS/PMS, 72 h), MCF-7; assay type: cell-based; conditions: Homo sapiens, MCF7, Table 3, substituted para-para biphenyl core
Experimental: as §1, §2

Row | SMILES | IC50 [1] [nM] | IC50 [2] [nM]
1 | COc1cccc(-c2cc(C(=O)Nc3ccc(-c4ccc(OC5CCN(C)CC5)cc4Cl)cc3)ccc2OC)c1 [Compound 29j, N-(2′-chloro-4′-((1-methylpiperidin-4-yl)oxy)-[1,1′-biphenyl]-4-yl)-3′,6-dimethoxy-[1,1′-biphenyl]-3-carboxamide] | 3680 | 3120
2 | COc1cccc(-c2cc(C(=O)Nc3ccc(-c4ccc(OC5CCN(C)CC5)cc4)cc3Cl)ccc2OC)c1 [Compound 29l, N-(3-chloro-4′-((1-methylpiperidin-4-yl)oxy)-[1,1′-biphenyl]-4-yl)-3′,6-dimethoxy-[1,1′-biphenyl]-3-carboxamide] | 4750 | 1800 ± 190
3 | COc1cccc(-c2cc(C(=O)Nc3ccc(-c4ccc(OC5CCN(C)CC5)c(C#N)c4)cc3)ccc2OC)c1 [Compound 29m, N-(3′-cyano-4′-((1-methylpiperidin-4-yl)oxy)-[1,1′-biphenyl]-4-yl)-3′,6-dimethoxy-[1,1′-biphenyl]-3-carboxamide] | 2770 ± 1160 | 3700 ± 610
4 | COc1cccc(-c2cc(C(=O)Nc3ccc(-c4ccc(OC5CCN(C)CC5)cc4)c([N+](=O)[O-])c3)ccc2OC)c1 [Compound 34c, 3′,6-dimethoxy-N-(4′-((1-methylpiperidin-4-yl)oxy)-2-nitro-[1,1′-biphenyl]-4-yl)-[1,1′-biphenyl]-3-carboxamide] | 2480 ± 770 | 3320 ± 250
5 | COc1cccc(-c2cc(C(=O)Nc3ccc(-c4ccc(OC5CCN(C)CC5)c(N)c4)cc3)ccc2OC)c1 [Compound 38a, N-(3′-amino-4′-((1-methylpiperidin-4-yl)oxy)-[1,1′-biphenyl]-4-yl)-3′,6-dimethoxy-[1,1′-biphenyl]-3-carboxamide] | 2230 ± 490 | 5950 ± 1220

Further lines, results first:

Row | IC50 [1] [nM] | IC50 [2] [nM] | SMILES
6 | 1840 ± 570 | 1480 ± 120 | COc1cccc(-c2cc(C(=O)Nc3ccc(-c4ccc(OC5CCN(C)CC5)c(Cl)c4)cc3)ccc2OC)c1 [Compound 29i, N-(3′-chloro-4′-((1-methylpiperidin-4-yl)oxy)-[1,1′-biphenyl]-4-yl)-3′,6-dimethoxy-[1,1′-biphenyl]-3-carboxamide]
7 | 2210 ± 180 | 3440 ± 210 | COc1cccc(-c2cc(C(=O)Nc3ccc(-c4ccc(OC5CCN(C)CC5)cc4)c(Cl)c3)ccc2OC)c1 [Compound 29k, N-(2-chloro-4′-((1-methylpiperidin-4-yl)oxy)-[1,1′-biphenyl]-4-yl)-3′,6-dimethoxy-[1,1′-biphenyl]-3-carboxamide]
8 | 1950 | 1250 ± 280 | COc1cccc(-c2cc(C(=O)Nc3ccc(-c4ccc(OC5CCN(C)CC5)c([N+](=O)[O-])c4)cc3)ccc2OC)c1 [Compound 34a, 3′,6-dimethoxy-N-(4′-((1-methylpiperidin-4-yl)oxy)-3′-nitro-[1,1′-biphenyl]-4-yl)-[1,1′-biphenyl]-3-carboxamide]
9 | 1070 | 1300 ± 120 | COc1cccc(-c2cc(C(=O)Nc3ccc(-c4ccc(OC5CCN(C)CC5)cc4[N+](=O)[O-])cc3)ccc2OC)c1 [Compound 34b, 3′,6-dimethoxy-N-(4′-((1-methylpiperidin-4-yl)oxy)-2′-nitro-[11′-biphenyl]-4-yl)-[1,1′-biphenyl]-3-carboxamide]
10 | 920 | 1150 ± 10 | COc1cccc(-c2cc(C(=O)Nc3ccc(-c4ccc(OC5CCN(C)CC5)cc4)cc3[N+](=O)[O-])ccc2OC)c1 [Compound 34d, 3′,6-dimethoxy-N-(4′-((1-methylpiperidin-4-yl)oxy)-3-nitro-[1,1′-biphenyl]-4-yl)-[1,1′-biphenyl]-3-carboxamide]
11 | 2130 ± 60 | 1760 ± 370 | COc1cccc(-c2cc(C(=O)Nc3ccc(-c4ccc(OC5CCN(C)CC5)cc4N)cc3)ccc2OC)c1 [Compound 38b, N-(2′-amino-4′-((1-methylpiperidin-4-yl)oxy)-[1,1′-biphenyl]-4-yl)-3′,6-dimethoxy-[1,1′-biphenyl]-3-carboxamide]
